According to patent US4052262A (priority 1969, dated 1977):
Read-outs that look alike come from different tables or passages of the source.

Molecular target: T1, alkaline protease (crystalline enzyme of the present invention) from Bacillus sp. No. 221 (ATCC 21522), Bacillus sp. No. 0-4 (ATCC 21536) or Bacillus sp. No. Y- (Shouchella clausii, UniProt P41362)
T1 construct: made in house; host or cells: culture of the wild Bacillus strain (No. 221, No. 0-4 or No. Y-76); native enzyme isolated from the culture
T1 sequence (P41362 112-380): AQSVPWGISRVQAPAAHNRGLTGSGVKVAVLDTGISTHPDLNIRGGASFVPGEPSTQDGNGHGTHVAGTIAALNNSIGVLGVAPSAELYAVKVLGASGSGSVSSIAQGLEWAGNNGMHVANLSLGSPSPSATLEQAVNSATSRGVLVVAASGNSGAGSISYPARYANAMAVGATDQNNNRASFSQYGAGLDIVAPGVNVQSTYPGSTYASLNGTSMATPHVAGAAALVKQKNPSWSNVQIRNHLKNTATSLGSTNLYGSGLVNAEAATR
Format: biochemical, No. Y-76
Protocol: One milliliter of the enzyme solution suitably diluted with 10^-2 M CaCl2 was mixed with 5 ml of 0.6% casein solution (pH 11.5, 2 × 10^-2 M Na2 HPO4 - NaOH buffer) at 30° C. After 10 minutes' incubation, 5 ml of trichloroacetic acid solution (0.11M trichloroacetic acid, 0.22M sodium acetate, and 0.33M acetic acid) was added to the reaction mixture and the mixture was further incubated at 30° C for 30 minutes. The mixture was filtered and the absorbance of the filtrate was measured at 275 mμ. The readings were corrected by substracting the value of the blank in which the enxyme solution was mixed with trichloroacetic acid solution before the casein solution was added.
One unit of protease activity is defined as the amount of enzyme required to produce the digest which is not precipitated by trichloroacetic acid and which gives absorbance value equivalent to 1 γ of tyrosine per minute at 30° C. The relative activity is the activity at any pH divided by the maximum activity and multiplied by 100. FIG. 4 of this application gives the data of the absolute activity (arbitrary scale) on the ordinate and the pH's on the axis of the abscissa.

NC(N)=O [Urea]
Residual activity (additive concentration 6 M): 0%

O=C(O)c1cc[c]([Hg][Cl])cc1 [PCMB, p-chloromercuribenzoate]
Residual activity (additive concentration 10^-3 M): 100%

O=C(O)CN(CCN(CC(=O)O)CC(=O)O)CC(=O)O [EDTA, ethylenediaminetetraacetic acid]
Residual activity: 100%
